These results are taken from patent publication US8901118B2, “Compounds and methods for kinase modulation, and indications therefor” (Plexxikon Inc., priority 2010, dated 2014).

The structures appear in SMILES notation.

One test deals with TrkA kinase (Homo sapiens, UniProt P04629). Put plainly: TrkA kinase biochemical activity assay (AlphaScreen). The note with it: 100 μM ATP; read-out: Biochemical Inhibition IC50 TrkA. The protocol: In one assay the biochemical activity IC50 values are determined with respect to inhibition of TrkA kinase activity, where inhibition of phosphorylation of a peptide substrate is measured as a function of compound concentration. Compounds to be tested, dissolved in DMSO (1 μL), are added to a white 384-well plate (Costar #3705). Working stocks of TrkA kinase (UBI), biotin-(E4Y)10 substrate (Upstate Biotech, Cat#12-440), and ATP (Sigma, Cat#A-3377) are prepared in 25 mM Hepes pH 7.5, 10 mM MnCl2, 1 mM DTT, 0.01% BSA, and 0.01% Tween-20. All components are added to the 384-well plate for a final concentration of 1 ng/well TrkA, 30 nM biotin-(E4Y)10 and 100 μM ATP in a volume of 20 μL. Each sample is at 5% DMSO. The plate is shaken for 1 minute at 1200 rpm, spun for 1 minute at 1000 rpm, then incubated for 40 minutes at room temperature. Just before use, working stocks of donor and acceptor beads from the AlphaScreen PY20 Detection Kit (PerkinElmer, Cat#676601M) are prepared in 25 mM Hepes pH 7.5, 100 mM EDTA. 0.01% BSA. Donor Beads solution (Streptavidin beads) is added (5 μL) to each well to final bead concentration of 10 μg/mL. The plate is incubated at room temperature for 20 minutes. Acceptor Beads solution (PY20 coated beads) are then added to each well (5 μL) to a final concentration of bead at 10 μg/mL. The plates are incubated at room temperature for 60 minutes. Fluorescence signal is recorded on the Envision reader. Phosphorylated substrate results in binding of the PY20 antibody and association of the donor and acceptor beads such that signal correlates with kinase activity. The signal vs. compound concentration is used to determine the IC50. Similar assays are used for TrkB and Trk C kinase.
TrkA kinase, sequence (P04629 33-796): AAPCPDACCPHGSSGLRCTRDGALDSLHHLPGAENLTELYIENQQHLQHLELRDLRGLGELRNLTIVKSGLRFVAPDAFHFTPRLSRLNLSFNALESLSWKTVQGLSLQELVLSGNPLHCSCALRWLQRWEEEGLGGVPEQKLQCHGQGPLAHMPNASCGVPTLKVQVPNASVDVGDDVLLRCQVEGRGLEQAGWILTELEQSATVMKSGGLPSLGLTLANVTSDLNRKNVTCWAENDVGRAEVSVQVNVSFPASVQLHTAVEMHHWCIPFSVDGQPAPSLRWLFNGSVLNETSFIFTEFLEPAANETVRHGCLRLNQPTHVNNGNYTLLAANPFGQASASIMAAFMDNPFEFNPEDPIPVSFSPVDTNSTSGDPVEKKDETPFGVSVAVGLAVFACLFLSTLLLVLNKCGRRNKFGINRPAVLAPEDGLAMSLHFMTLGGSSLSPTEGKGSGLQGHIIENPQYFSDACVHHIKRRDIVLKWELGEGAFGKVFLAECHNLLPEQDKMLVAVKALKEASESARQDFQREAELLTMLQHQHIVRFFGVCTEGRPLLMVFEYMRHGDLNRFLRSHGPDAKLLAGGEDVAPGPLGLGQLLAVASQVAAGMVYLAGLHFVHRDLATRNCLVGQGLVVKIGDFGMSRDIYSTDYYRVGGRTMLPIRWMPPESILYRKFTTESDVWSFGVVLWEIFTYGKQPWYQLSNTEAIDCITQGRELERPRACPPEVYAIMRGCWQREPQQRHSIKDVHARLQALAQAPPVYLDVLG
For orientation: Bead proximity is the source of the signal in Alpha formats.

The next test deals with T1, BCR-NTRK3 BaF3 cells (Homo sapiens, UniProt Q16288).
T1 construct: fused on or other part: P11274 (Breakpoint cluster region protein)
T1 sequence (Q16288 whole entry, the tested form may be a part): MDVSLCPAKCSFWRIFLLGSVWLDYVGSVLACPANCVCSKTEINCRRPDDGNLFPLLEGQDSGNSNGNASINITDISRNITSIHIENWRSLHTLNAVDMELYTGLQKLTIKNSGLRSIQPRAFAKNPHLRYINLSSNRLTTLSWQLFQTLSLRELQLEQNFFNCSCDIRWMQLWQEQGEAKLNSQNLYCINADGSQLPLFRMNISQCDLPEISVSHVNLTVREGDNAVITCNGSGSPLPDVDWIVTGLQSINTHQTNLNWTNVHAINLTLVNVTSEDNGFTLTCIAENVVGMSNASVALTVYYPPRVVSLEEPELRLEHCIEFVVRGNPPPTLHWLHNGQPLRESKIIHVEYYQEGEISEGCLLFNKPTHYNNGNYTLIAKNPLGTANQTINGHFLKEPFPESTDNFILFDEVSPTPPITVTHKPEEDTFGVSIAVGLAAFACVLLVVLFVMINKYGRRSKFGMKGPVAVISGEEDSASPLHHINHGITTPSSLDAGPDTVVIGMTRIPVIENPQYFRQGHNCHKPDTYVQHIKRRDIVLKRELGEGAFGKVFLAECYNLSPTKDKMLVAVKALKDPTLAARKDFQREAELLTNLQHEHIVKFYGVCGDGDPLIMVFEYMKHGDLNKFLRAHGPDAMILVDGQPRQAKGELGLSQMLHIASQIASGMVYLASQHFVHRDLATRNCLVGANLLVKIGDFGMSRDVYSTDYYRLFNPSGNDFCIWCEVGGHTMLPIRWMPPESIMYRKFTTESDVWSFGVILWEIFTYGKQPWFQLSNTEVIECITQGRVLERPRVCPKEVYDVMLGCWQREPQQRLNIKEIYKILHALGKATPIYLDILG
Kind of test: BaF3 BCR-NTRK3 cell proliferation assay (ATPlite). It counts as cell-based. The note with it: read-out: Inhibition of Cell Proliferation IC50, BCR/BaF3 TrkC. As for the experimental part:
Compounds are assessed in a variety of cell based assays. For example BaF3 cells engineered with any of BCR-FMS, BCR-KIT, BCR-FLT3, BCR-NTRK1, BCR-NTRK2, and BCR-NTRK3, are used in cell proliferation assays to assess inhibitory activity of Fms, Kit, Flt-3, TrkA, TrkB, and TrkC, respectively. An MV-4-11 (leukemia) cell proliferation assay is used to assess inhibitory activity in Flt-3, and SKNSH (human neuroblastoma) cell proliferation assay is used to assess efficacy of Fms/Trk inhibitors. Additional cells may be assayed similarly to assess the efficacy of Fms/Trk inhibitors, such as MiaPaCa (human pancreatic cancer) and Capan-1 (human pancreatic carcinoma) cells. Reagent and assay conditions are as follows: • BaF3 cells: • Maintained in RPMI containing 10% FBS, 1% PenStrep, 1% NEAA, and 1% L-Glutamine, supplemented with 1 mg/mL G418 and 5% WEHI-CM (or recombinant murine IL-3). • Confluent cells are split 1:50 to 1:100 every 3-4 days. • MV-4-11 cells: • Maintained in Iscove's Modified Dulbecco's Medium containing 10% FBS. • Confluent cells are split 1:4 every 3-4 days. • SKNSH cells: RPMI containing 10% FBS. On day 1, cells are counted, then centrifuged in a conical tube for 5 minutes at 1000 rpm. The supernatant is removed and cells are re-suspended as follows: • BaF3: resuspend in growth media +1 mg/mL G418 (without WEHFIL-3) to 2×10^5 cells/mL. • MV-4-11: resuspend in growth media to 5×10^5 cells/mL. • SKNSH: resuspend in growth media to 2×10^4 cells/mL. The cells are plated (50 μL, 150 μL for SKNSH cells) in each well of a 96-well dish (Corning 3610) and incubated at 37° C. in 5% CO2 overnight, cells plated to a final concentration of cells as follows: • BaF3: 10,000 cells per well. • MV-4-11: 25,000 cells per well. • SKNSH: 3,000 cells per well. On day 2, compound at a maximum concentration of 5 mM is serially diluted 1:3 for a total of 8 point titration with DMSO as a control. A 1 μL aliquot of each dilution point is added to 249 μL growth media and 50 μL is added to a well containing cells, providing 10 μM compound for the maximum concentration point. The cells are incubated for 3 days at 37° C. in 5% CO2. For SKNSH cells, a 0.75 μL aliquot of appropriate dilution in DMSO is added to 150 μL of cells. On day 5, ATPlite 1 step Luminescence Assay System (Perkin Elmer #6016739) is brought to room temperature along with the cell cultures. ATPlite is added to each well as follows: • BaF3: 25 μL per well. • MV-4-11: 40 μL per well. • SKNSH: 20 μL per well. The cells are incubated at room temperature for 10 minutes, then luminescence is read on Safire reader. The measured luminescence correlates directly with cell number, such that the reading as a function of compound concentration is used to determine the IC50 value.
It is understood that the results of these assays may vary as assay conditions are varied. Inhibition levels determined under the conditions described herein represent a relative activity for the compounds tested under the specific conditions employed. The cell based assays are likely to show variability due to the complexity of the system and the sensitivity thereof to any changes in the assay conditions. […] Results for compounds that are tested and show substantially no inhibition below the highest tested concentration are represented as “-” in the tables below. In some instances, the compounds were not tested in all of the assays, or assay results were not valid, as indicated by NA in the tables below.

Turning to `COc1ccc(Nc2ccc(C(=O)c3c[nH]c4ncnc(NCc5ccc(C(F)(F)F)nc5)c34)c(F)n2)cn1` [Compound P-4071, [2-fluoro-6-[(6-methoxy-3-pyridyl)amino]-3-pyridyl]-[4-[[6-(trifluoromethyl)-3-pyridyl]methylamino]-7H-pyrrolo[2,3-d]pyrimidin-5-yl]methanone], the IC50 at TrkA kinase and at BCR-NTRK3 BaF3 cells was below 10 nM in each case. Consider `CCNc1ncnc2[nH]cc(C(=O)c3ccc(Nc4ccc(OC)nc4)nc3F)c12` [Compound P-4081, [4-(ethylamino)-7H-pyrrolo[2,3-d]pyrimidin-5-yl]-[2-fluoro-6-[(6-methoxy-3-pyridyl)amino]-3-pyridyl]methanone], for which the IC50 on TrkA kinase and at BCR-NTRK3 BaF3 cells was below 10 nM in each case. Consider `CNc1ncnc2[nH]cc(C(=O)c3ccc(Nc4ccc(OC)nc4)nc3OC)c12` [Compound P-4085, [2-methoxy-6-[(6-methoxy-3-pyridyl)amino]-3-pyridyl]-[4-(methylamino)-7H-pyrrolo[2,3-d]pyrimidin-5-yl]methanone], for which the IC50 on TrkA kinase is below 10 nM; at BCR-NTRK3 BaF3 cells, below 100 nM. Take `Cc1ccc(Nc2ccc(C(=O)c3c[nH]c4ncnc(NCC5CC5)c34)c(F)n2)cn1` [Compound P-4113, [4-(cyclopropylmethylamino)-7H-pyrrolo[2,3-d]pyrimidin-5-yl]-[2-fluoro-6-[(6-methyl-3-pyridyl)amino]-3-pyridyl]methanone]: the IC50 at TrkA kinase was below 10 nM. Consider `COc1ccc(Nc2ccc(C(=O)c3c[nH]c4ncnc(NC5CCC(F)(F)CC5)c34)c(F)n2)cn1` [Compound P-4056, [4-[(4,4-difluorocyclohexyl)amino]-7H-pyrrolo[2,3-d]pyrimidin-5-yl]-[2-fluoro-6-[(6-methoxy-3-pyridyl)amino]-3-pyridyl]methanone], for which the IC50 at BCR-NTRK3 BaF3 cells is below 10 nM.

In the case of `CNc1ncnc2[nH]cc(C(=O)c3ccc(NC4CCCCC4)nc3F)c12` [Compound P-4102, [6-(cyclohexylamino)-2-fluoro-3-pyridyl]-[4-(methylamino)-7H-pyrrolo[2,3-d]pyrimidin-5-yl]methanone], the IC50 on TrkA kinase was below 100 nM. Same read-out and setting: the value for `CCc1ccc(Nc2ccc(C(=O)c3c[nH]c4ncnc(Nc5ccc(C)nc5)c34)c(F)n2)cn1` [Compound P-4086, [6-[(6-ethyl-3-pyridyl)amino]-2-fluoro-3-pyridyl]-[4-[(6-methyl-3-pyridyl)amino]-7H-pyrrolo[2,3-d]pyrimidin-5-yl]methanone] was below 100 nM; that for `CCCCNc1ncnc2[nH]cc(C(=O)c3ccc(Nc4ccc(CC)nc4)nc3F)c12` [Compound P-4100, [4-(butylamino)-7H-pyrrolo[2,3-d]pyrimidin-5-yl]-[6-[(6-ethyl-3-pyridyl)amino]-2-fluoro-3-pyridyl]methanone] was below 100 nM.

Consider `CC(C)Nc1ncnc2[nH]cc(C(=O)c3ccc(NC4CCCCC4)nc3F)c12` [Compound P-4101, [6-(cyclohexylamino)-2-fluoro-3-pyridyl]-[4-(isopropylamino)-7H-pyrrolo[2,3-d]pyrimidin-5-yl]methanone], for which, on TrkA kinase, the IC50 was below 100 nM. Consider `COc1ccc(Nc2ccc(C(=O)c3c[nH]c4ncnc(NC(C)(C)C)c34)c(F)n2)cn1` [Compound P-4055, [4-(tert-butylamino)-7H-pyrrolo[2,3-d]pyrimidin-5-yl]-[2-fluoro-6-[(6-methoxy-3-pyridyl)amino]-3-pyridyl]methanone], for which, on BCR-NTRK3 BaF3 cells, the IC50 is below 10 nM.

With `CC1CCC(Nc2ncc(Cc3c[nH]c4ncc(Cl)cc34)cn2)CC1` (stereo not shown) [Compound P-3009, [5-(5-Chloro-1H-pyrrolo[2,3-b]pyridin-3-ylmethyl)-pyrimidin-2-yl]-(4-methyl-cyclohexyl)-amine], the IC50 on BCR-NTRK3 BaF3 cells is above 10000 nM. `CCc1ccc(Nc2ccc(C(=O)c3c[nH]c4ncnc(NC5CCCC5)c34)c(F)n2)cn1` [Compound P-4099, [4-(cyclopentylamino)-7H-pyrrolo[2,3-d]pyrimidin-5-yl]-[6-[(6-ethyl-3-pyridyl)amino]-2-fluoro-3-pyridyl]methanone]: the IC50 on TrkA kinase was below 100 nM. On to `Fc1nc(NC2CCC(F)(F)CC2)ccc1Cc1c[nH]c2ncc(Cl)cc12` [Compound P-3013, [5-(5-Chloro-1H-pyrrolo[2,3-b]pyridin-3-ylmethyl)-6-fluoro-pyridin-2-yl]-(4,4-difluoro-cyclohexyl)-amine], for which, on BCR-NTRK3 BaF3 cells, the IC50 was above 10000 nM.

Take `CC(C)Nc1ncnc2[nH]cc(C(=O)c3ccc(NC4CCCCC4)nc3Cl)c12` [Compound P-4109, [2-chloro-6-(cyclohexylamino)-3-pyridyl]-[4-(isopropylamino)-7H-pyrrolo[2,3-d]pyrimidin-5-yl]methanone]: the IC50 on TrkA kinase was below 100 nM. Same read-out and setting: as for `CCc1ccc(Nc2ccc(C(=O)c3c[nH]c4ncnc(N[C@@H](C)c5ccc(F)cc5)c34)c(F)n2)cn1` [Compound P-4097, [6-[(6-ethyl-3-pyridyl)amino]-2-fluoro-3-pyridyl]-[4-[[(1S)-1-(4-fluorophenyl)ethyl]amino]-7H-pyrrolo[2,3-d]pyrimidin-5-yl]methanone], the figure is below 100 nM; as for `CCc1ccc(Nc2ccc(C(=O)c3c[nH]c4ncnc(NC5CCC(F)(F)CC5)c34)c(F)n2)cn1` [Compound P-4096, [4-[(4,4-difluorocyclohexyl)amino]-7H-pyrrolo[2,3-d]pyrimidin-5-yl]-[6-[(6-ethyl-3-pyridyl)amino]-2-fluoro-3-pyridyl]methanone], below 100 nM; as for `CCc1ccc(Nc2ccc(C(=O)c3c[nH]c4ncnc(NCCCOC)c34)c(F)n2)cn1` [Compound P-4098, [6-[(6-ethyl-3-pyridyl)amino]-2-fluoro-3-pyridyl]-[4-(3-methoxypropylamino)-7H-pyrrolo[2,3-d]pyrimidin-5-yl]methanone], below 10 nM. Still for that read-out and setting: as for `CCCNc1ncnc2[nH]cc(C(=O)c3ccc(Nc4ccc(C)nc4)nc3F)c12` [Compound P-4114, [2-fluoro-6-[(6-methyl-3-pyridyl)amino]-3-pyridyl]-[4-(propylamino)-7H-pyrrolo[2,3-d]pyrimidin-5-yl]methanone], the figure is below 10 nM.

`CNc1ncnc2[nH]cc(C(=O)c3ccc(NC4CCCCC4)nc3Cl)c12` [Compound P-4110, [2-chloro-6-(cyclohexylamino)-3-pyridyl]-[4-(methylamino)-7H-pyrrolo[2,3-d]pyrimidin-5-yl]methanone]: the IC50 at TrkA kinase was below 1000 nM.
